From patent US6737383B1, “Herbicidal oxadiazolidines” (priority 1999, dated 2004)

Tests used:
[1] = test system: cocklebur; assay: Test B pre/postemergence cocklebur; format: in vivo, Xanthium strumarium
Summary of the method: (§1)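 Herbicidal effect was estimated by eye on a ten-point control scale after plants spent twelve to sixteen days in a greenhouse following soil or foliar treatment. Foliar sprays targeted plants at one to four leaves; all doses were formulated in a non-phytotoxic solvent with surfactant.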

[2] = test system: surinam grass; assay: Test B pre/postemergence surinam grass; format: in vivo, Brachiaria decumbens
Summary of the method: as §1

[3] = test system: wheat; assay: Test B pre/postemergence wheat; format: in vivo, Triticum aestivum
Summary of the method: as §1

[4] = test system: bedstraw; assay: Test B pre/postemergence bedstraw; format: in vivo, Galium aparine
Summary of the method: as §1

[5] = test system: bamyardgrass; assay: Test B flood test barnyardgrass; format: in vivo, Echinochloa crus-galli
Summary of the method: (§2)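 Flood test on plants grown to the 2-leaf stage; treated plants kept in greenhouse twelve to sixteen days, then visually rated against controls on a 0 (no effect) to 10 (complete control) scale.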

[6] = test system: duck salad; assay: Test B flood test duck salad; format: in vivo, Heteranthera limosa
Summary of the method: as §2

[7] = test system: corn; assay: Test B pre/postemergence corn; format: in vivo, Zea mays
Summary of the method: as §1

[8] = test system: smallflower flatsedge; assay: Test B flood test smallflower flatsedge; format: in vivo, Cyperus difformis
Summary of the method: as §2

[9] = test system: pigweed; assay: Test B pre/postemergence pigweed; format: in vivo, Amaranthus retroflexus
Summary of the method: as §1

[10] = test system: purple nutsedge; assay: Test B pre/postemergence purple nutsedge; format: in vivo, Cyperus rotundus
Summary of the method: as §1

[11] = test system: rape; assay: Test B pre/postemergence rape; format: in vivo, Brassica napus
Summary of the method: as §1

[12] = test system: blackgrass; assay: Test B pre/postemergence blackgrass; format: in vivo, Alopecurus myosuroides
Summary of the method: as §1

[13] = test system: wild oat; assay: Test B pre/postemergence wild oat; format: in vivo, Avena fatua
Summary of the method: as §1

[14] = test system: velvetleaf; assay: Test B pre/postemergence velvetleaf; format: in vivo, Abutilon theophrasti
Summary of the method: as §1

[15] = test system: morningglory; assay: Test B pre/postemergence morningglory; format: in vivo, Ipomoea hederacea
Summary of the method: as §1

[16] = test system: rice; assay: Test B flood test rice; format: in vivo, Oryza sativa
Summary of the method: as §2

[17] = Postemergence, Rate 62 g/ha, scale 0 to 10, 0 is no effect, 10 is complete control
[18] = Postemergence, Rate 250 g/ha, scale 0 to 10, 0 no effect, 10 complete control
[19] = Preemergence, Rate 62 g/ha, scale 0 to 10 (0 no effect, 10 complete control)
[20] = Preemergence, Rate 125 g/ha, scale 0 to 10 (0 no effect, 10 complete control)
[21] = Preemergence, Rate 250 g/ha, scale of 0 to 10 where 0 is no effect and 10 is complete control
[22] = Preemergence, Rate 500 g/ha, scale 0 (no effect) to 10 (complete control)
[23] = Rate 125 g/ha, Postemergence, scale 0 to 10, 0 no effect, 10 complete control
[24] = Rate 500 g/ha, Postemergence, scale 0 to 10, 0 no effect, 10 complete control
[25] = Rate 125 g/ha, Postemergence section (flood test species), scale 0 to 10, 0 no effect, 10 complete control
[26] = Rate 500 g/ha, listed under Postemergence (flood test species), scale 0 to 10, 0 no effect, 10 complete control
[27] = flood test, listed under Postemergence, Rate 250 g/ha, scale 0 to 10, 0 no effect, 10 complete control

Cc1ccccc1Cn1c(=O)on(C(=O)N(C)c2ccccc2)c1=O [Compound 85]
0: Cocklebur plant response rating [1, 17] | Cocklebur plant response rating [1, 18] | Cocklebur plant response rating [1, 19] | Plant response rating, Cocklebur [1, 20] | Plant response rating, Cocklebur [1, 21] | Cocklebur plant response rating [1, 22] | Cocklebur plant response rating [1, 23] | Cocklebur plant response rating [1, 24] | B. signalgrass plant response rating [2, 17] | B. signalgrass plant response rating [2, 18] | B. signalgrass plant response rating [2, 19] | Plant response rating, B. signalgrass [2, 20] | Plant response rating, B. signalgrass [2, 21] | B. signalgrass plant response rating [2, 22] | B. signalgrass plant response rating [2, 23] | B. signalgrass plant response rating ([2]; Rate 500 g/ha, Postemergence, scale of 0 to 10 where 0 is no effect and 10 is complete control) | Wheat plant response rating [3, 17] | Wheat plant response rating [3, 18] | Wheat plant response rating [3, 19] | Plant response rating, Wheat [3, 20] | Plant response rating, Wheat [3, 21] | Wheat plant response rating [3, 22] | Wheat plant response rating [3, 23] | Wheat plant response rating [3, 24] | Bedstraw plant response rating [4, 17] | Bedstraw plant response rating [4, 18] | Bedstraw plant response rating [4, 19] | Plant response rating, Bedstraw [4, 20] | Plant response rating, Bedstraw [4, 21] | Bedstraw plant response rating [4, 22] | Bedstraw plant response rating [4, 23] | Bedstraw plant response rating [4, 24] | Barnyardgrass plant response rating [5, 17] | Barnyardgrass plant response rating [5, 25] | Barnyardgrass plant response rating [5, 26] | Barnyardgrass plant response rating [5, 27] | Ducksalad plant response rating [6, 17] | Ducksalad plant response rating [6, 25] | Ducksalad plant response rating [6, 26] | Ducksalad plant response rating [6, 27] | Corn plant response rating [7, 17] | Corn plant response rating [7, 18] | Corn plant response rating [7, 19] | Plant response rating, Corn [7, 20] | Plant response rating, Corn [7, 21] | Corn plant response rating [7, 22] | Corn plant response rating [7, 23] | Corn plant response rating [7, 24] | S. Flatsedge plant response rating [8, 17] | S. Flatsedge plant response rating [8, 25] | S. Flatsedge plant response rating [8, 26] | S. Flatsedge plant response rating [8, 27] | Redroot pigweed plant response rating [9, 17] | Redroot pigweed plant response rating [9, 18] | Redroot pigweed plant response rating [9, 19] | Plant response rating, Redroot pigweed [9, 20] | Plant response rating, Redroot pigweed [9, 21] | Redroot pigweed plant response rating [9, 22] | Redroot pigweed plant response rating [9, 23] | Redroot pigweed plant response rating [9, 24] | Nutsedge plant response rating [10, 17] | Nutsedge plant response rating [10, 18] | Nutsedge plant response rating [10, 19] | Plant response rating, Nutsedge [10, 20] | Plant response rating, Nutsedge [10, 21] | Nutsedge plant response rating [10, 22] | Nutsedge plant response rating [10, 23] | Nutsedge plant response rating [10, 24] | Rape plant response rating [11, 17] | Rape plant response rating [11, 18] | Rape plant response rating [11, 19] | Plant response rating, Rape [11, 20] | Plant response rating, Rape [11, 21] | Rape plant response rating [11, 22] | Rape plant response rating [11, 23] | Rape plant response rating [11, 24] | Blackgrass plant response rating [12, 17] | Blackgrass plant response rating [12, 18] | Blackgrass plant response rating [12, 19] | Plant response rating, Blackgrass [12, 20] | Plant response rating, Blackgrass [12, 21] | Blackgrass plant response rating [12, 22] | Blackgrass plant response rating [12, 23] | Blackgrass plant response rating [12, 24] | Wild oats plant response rating [13, 17] | Wild oats plant response rating [13, 18] | Wild oats plant response rating [13, 19] | Plant response rating, Wild oats [13, 20] | Plant response rating, Wild oats [13, 21] | Wild oats plant response rating [13, 22] | Wild oats plant response rating [13, 23] | Wild oats plant response rating [13, 24] | Velvetleaf plant response rating [14, 17] | Velvetleaf plant response rating [14, 18] | Velvetleaf plant response rating [14, 19] | Plant response rating, Velvetleaf [14, 20] | Plant response rating, Velvetleaf [14, 21] | Velvetleaf plant response rating [14, 22] | Velvetleaf plant response rating [14, 23] | Velvetleaf plant response rating [14, 24] | Morningglory plant response rating [15, 17] | Morningglory plant response rating [15, 18] | Morningglory plant response rating [15, 19] | Plant response rating, Morningglory [15, 20] | Plant response rating, Morningglory [15, 21] | Morningglory plant response rating [15, 22] | Morningglory plant response rating [15, 23] | Morningglory plant response rating [15, 24] | Rice plant response rating [16, 17] | Rice plant response rating [16, 25] | Rice plant response rating [16, 26] | Rice plant response rating [16, 27]
